Measurements taken from patent US4760136A, “Chartreusin derivatives and salts thereof” (Ishihara Sangyo Kaisha, Ltd., priority 1984, dated 1988).
Counter-ions that a name gives are not always drawn. Like-named read-outs stand apart in the source and are kept apart here.

Key:
P-388 leukemia cells = test: Antitumor activity: P-388 leukemia cells inoculated intraperitoneally, drug administered intravenously, BDF1 mice; assay type: in vivo; conditions: Mus musculus, P388, iv, read-out: T/C (%) of MST; for response vs control in vivo at 40 mg/kg: dose c: 40 mg/kg × 3, i.v. on days 1, 5 and 9; for response vs control in vivo at 20 mg/kg: dose b: 20 mg/kg × 3, i.v. on days 1, 5 and 9; for response vs control in vivo at 60 mg/kg: dose e: 60 mg/kg × 3, i.v. on days 1, 5 and 9
Procedure, shortened: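 Drug dosing was intravenous on the first, fifth and ninth days after intraperitoneal inoculation of P-388 leukemia cells (1×10^6 per mouse) into BDF1 mice. Vehicles were physiological saline alone, or saline with small amounts of sodium carboxymethyl cellulose or Tween-80.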

[1] = Acute toxicity, intravenous (once), ddY mice; assay type: in vivo; conditions: mouse, in vivo, formulated per Preparation Example
Excerpt: In Table 7 are shown acute toxicity values (LD50, mg/kg) in ddY mice in the case of intravenously administering (once) each of the compounds of this invention in the form of preparations shown in the Preparation Examples shown in Table 7.

[2] = dose f: 80 mg/kg × 3, i.v. on days 1, 5 and 9, BDF1 mice, P-388 i.p.

SMILES | response vs control in vivo at 40 mg/kg (P-388 leukemia cells; BDF1 mice, P-388 i.p.) [%] | response vs control in vivo at 80 mg/kg (P-388 leukemia cells; [2]) [%] | LD50 ([1]; iv) [mg/kg] | further results
COC1C(O)C(C)OC(OC2C(Oc3cccc4c(OC(=O)CCCl)c5c(=O)oc6ccc(C)c7c(=O)oc(c34)c5c67)OC(C)C3OC(C)(C)OC32)C1O (stereo not drawn) [Compound No. 157] | 153 | 201 | ≥ 80 | –
CO[C@H]1[C@@H](O)[C@@H](C)O[C@H](O[C@H]2[C@H](Oc3cccc4c(OC(=O)c5ccc(Cl)cc5)c5c(=O)oc6ccc(C)c7c(=O)oc(c34)c5c67)O[C@H](C)[C@@H]3OC(C)(C)O[C@@H]32)[C@@H]1O [Compound No. 185] | 142 | 192 | ≥ 80 | –
COC1C(O)C(C)OC(OC2C(Oc3cccc4c(OC(=O)CCNC=O)c5c(=O)oc6ccc(C)c7c(=O)oc(c34)c5c67)OC(C)C3OC(c4ccsc4)OC32)C1O (stereo not drawn) [compound 81] | 173 | – | ≥ 40 | response vs control in vivo at 20 mg/kg (P-388 leukemia cells; BDF1 mice, P-388 i.p.): 139%
COC1C(O)C(C)OC(OC2C(Oc3cccc4c(OC(=O)C(Cc5ccccc5)NC(=O)OCc5ccccc5)c5c(=O)oc6ccc(C)c7c(=O)oc(c34)c5c67)OC(C)C3OC(c4ccccc4)OC32)C1O (stereo not drawn) [compound 122] | 135 | – | ≥ 40 | –
COC1C(O)C(C)OC(OC2C(Oc3cccc4c(OC(=O)C5CC5)c5c(=O)oc6ccc(C)c7c(=O)oc(c34)c5c67)OC(C)C3OC(CCc4ccccc4)OC32)C1O (stereo not drawn) [compound 233] | – | – | ≥ 60 | response vs control in vivo at 60 mg/kg (P-388 leukemia cells; BDF1 mice, P-388 i.p.): 165%
COC1C(O)C(C)OC(OC2C(Oc3cccc4c(OC(=O)CCNC(=O)c5ccccc5)c5c(=O)oc6ccc(C)c7c(=O)oc(c34)c5c67)OC(C)C3OC(c4ccccc4)OC32)C1O (stereo not drawn) [Compound No. 23] | 233 | – | ≥ 40 | response vs control in vivo at 20 mg/kg (P-388 leukemia cells; BDF1 mice, P-388 i.p.): 205%
CO[C@H]1[C@@H](O)[C@@H](C)O[C@H](O[C@H]2[C@H](Oc3cccc4c(OC(=O)c5ccc([N+](=O)[O-])cc5)c5c(=O)oc6ccc(C)c7c(=O)oc(c34)c5c67)O[C@H](C)[C@@H]3OC(c4ccccc4)O[C@@H]32)[C@@H]1O (stereo partly drawn) [Compound No. 186] | 176 | – | ≥ 80 | –
COC1C(O)C(C)OC(OC2C(Oc3cccc4c(OC(=O)COc5ccc(F)cc5)c5c(=O)oc6ccc(C)c7c(=O)oc(c34)c5c67)OC(C)C3OC(C)(C)OC32)C1O (stereo not drawn) [compound 225] | – | – | ≥ 60 | response vs control in vivo at 60 mg/kg (P-388 leukemia cells; BDF1 mice, P-388 i.p.): 148%
CO[C@H]1[C@@H](O)[C@@H](C)O[C@H](O[C@H]2[C@H](Oc3cccc4c(OC(=O)c5ccc(Br)cc5)c5c(=O)oc6ccc(C)c7c(=O)oc(c34)c5c67)O[C@H](C)[C@@H]3OC(C)(C)O[C@@H]32)[C@@H]1O [Compound No. 179] | 136 | 208 | ≥ 80 | –
C=CCCC(=O)Oc1c2cccc(O[C@@H]3O[C@H](C)[C@@H]4OC(c5ccc(Cl)cc5Cl)O[C@@H]4[C@H]3O[C@H]3O[C@H](C)[C@H](O)[C@H](OC)[C@H]3O)c2c2oc(=O)c3c(C)ccc4oc(=O)c1c2c43 (stereo partly drawn) [compound 217] | – | – | – | response vs control in vivo at 80 mg/kg (P-388 leukemia cells): 181%; LD50 [1]: ≥ 80 mg/kg
COC1C(O)C(C)OC(OC2C(Oc3cccc4c(OC(=O)C(NC(=O)OCc5ccccc5)C(C)C)c5c(=O)oc6ccc(C)c7c(=O)oc(c34)c5c67)OC(C)C3OC(C)(C)OC32)C1O (stereo not drawn) [compound 125] | – | – | ≥ 100 | response vs control in vivo at 50 mg/kg (P-388 leukemia cells; dose d: 50 mg/kg × 3, i.v. on days 1, 5 and 9, BDF1 mice, P-388 i.p.): 140%
CO[C@H]1[C@@H](O)[C@@H](C)O[C@H](O[C@H]2[C@H](Oc3cccc4c(OC(=O)c5ccc(C#N)cc5)c5c(=O)oc6ccc(C)c7c(=O)oc(c34)c5c67)O[C@H](C)[C@@H]3OC(C)(C)O[C@@H]32)[C@@H]1O [Compound No. 183] | 153 | 192 | ≥ 80 | –
COc1ccc(C(=O)Oc2c3cccc(O[C@@H]4O[C@H](C)[C@@H]5OC(C)(C)O[C@@H]5[C@H]4O[C@H]4O[C@H](C)[C@H](O)[C@H](OC)[C@H]4O)c3c3oc(=O)c4c(C)ccc5oc(=O)c2c3c54)cc1 [compound 208] | 136 | 192 | ≥ 80 | –
CO[C@H]1[C@@H](O)[C@@H](C)O[C@H](O[C@H]2[C@H](Oc3cccc4c(OC(=O)c5ccc(C(F)(F)F)cc5)c5c(=O)oc6ccc(C)c7c(=O)oc(c34)c5c67)O[C@H](C)[C@@H]3OC(C)(C)O[C@@H]32)[C@@H]1O [Compound No. 182] | 153 | 192 | ≥ 80 | –
CO[C@H]1[C@@H](O)[C@@H](C)O[C@H](O[C@H]2[C@H](Oc3cccc4c(OC(=O)c5ccccc5Cl)c5c(=O)oc6ccc(C)c7c(=O)oc(c34)c5c67)O[C@H](C)[C@@H]3OC(C)(C)O[C@@H]32)[C@@H]1O [Compound No. 181] | 145 | 208 | ≥ 80 | –
COC1C(O)C(C)OC(OC2C(Oc3cccc4c(OC(=O)CCS(C)(=O)=O)c5c(=O)oc6ccc(C)c7c(=O)oc(c34)c5c67)OC(C)C3OC(c4ccccc4)OC32)C1O (stereo not drawn) [Compound No. 168] | – | – | ≥ 40 | response vs control in vivo at 20 mg/kg (P-388 leukemia cells; BDF1 mice, P-388 i.p.): 167%
CCCCC(CC)C(=O)Oc1c2cccc(OC3OC(C)C4OC(C)(C)OC4C3OC3OC(C)C(O)C(OC)C3O)c2c2oc(=O)c3c(C)ccc4oc(=O)c1c2c43 (stereo not drawn) [compound 239] | – | – | ≥ 60 | response vs control in vivo at 60 mg/kg (P-388 leukemia cells; BDF1 mice, P-388 i.p.): 153%
CCC1OC2C(C)OC(Oc3cccc4c(OC(=O)CCNC(=O)C(F)(F)F)c5c(=O)oc6ccc(C)c7c(=O)oc(c34)c5c67)C(OC3OC(C)C(O)C(OC)C3O)C2O1 (stereo not drawn) [compound 100] | – | 157 | ≥ 180 | –
COC1C(O)C(C)OC(OC2C(Oc3cccc4c(OC(=O)CCNC(=O)C(Cl)(Cl)Cl)c5c(=O)oc6ccc(C)c7c(=O)oc(c34)c5c67)OC(C)C3OC(c4ccccc4)OC32)C1O (stereo not drawn) [Compound No. 22] | – | – | ≥ 40 | response vs control in vivo at 20 mg/kg (P-388 leukemia cells; BDF1 mice, P-388 i.p.): 181%
COC1C(O)C(C)OC(OC2C(Oc3cccc4c(OC(=O)C5CCCCC5NC(=O)OCc5ccccc5)c5c(=O)oc6ccc(C)c7c(=O)oc(c34)c5c67)OC(C)C3OC(c4ccccc4)OC32)C1O (stereo not drawn) [Compound No. 62] | 210 | – | ≥ 40 | response vs control in vivo at 20 mg/kg (P-388 leukemia cells; BDF1 mice, P-388 i.p.): 155%
COC1C(O)C(C)OC(OC2C(Oc3cccc4c(OC(=O)CNC(=O)CNC(=O)CNC(=O)OCc5ccccc5)c5c(=O)oc6ccc(C)c7c(=O)oc(c34)c5c67)OC(C)C3OC(c4cccc(F)c4)OC32)C1O (stereo not drawn) [compound 116] | 130 | – | ≥ 30 | –
COC1C(O)C(C)OC(OC2C(Oc3cccc4c(OC(=O)C(C)CNC(=O)c5ccccc5)c5c(=O)oc6ccc(C)c7c(=O)oc(c34)c5c67)OC(C)C3OC(c4ccccc4)OC32)C1O (stereo not drawn) [Compound No. 13] | 262 | – | ≥ 40 | response vs control in vivo at 20 mg/kg (P-388 leukemia cells; BDF1 mice, P-388 i.p.): 186%
COC1C(O)C(C)OC(OC2C(Oc3cccc4c(OC(=O)C(CC[S+](C)[O-])NC(=O)OCc5ccccc5)c5c(=O)oc6ccc(C)c7c(=O)oc(c34)c5c67)OC(C)C3OC(c4ccccc4)OC32)C1O (stereo not drawn) [Compound No. 79, 6-O-(N-Carbobenzyloxy-S-Oxomethionyl)-3',4'-O-Benzylidene-Chartreusin] | 179 | – | ≥ 40 | –
COC1C(O)C(C)OC(OC2C(Oc3cccc4c(OC(C)=O)c5c(=O)oc6ccc(C)c7c(=O)oc(c34)c5c67)OC(C)C3OC(C)(C)OC32)C1O (stereo not drawn) [Compound No. 203, 6-O-Acetyl-3',4'-O-Isopropylidene-Chartreusin] | – | – | ≥ 60 | response vs control in vivo at 60 mg/kg (P-388 leukemia cells; BDF1 mice, P-388 i.p.): 180%
COC1C(O)C(C)OC(OC2C(Oc3cccc4c(OC(=O)CC(C)C)c5c(=O)oc6ccc(C)c7c(=O)oc(c34)c5c67)OC(C)C3OC(C)(C)OC32)C1O (stereo not drawn) [Compound No. 171] | 186 | 212 | ≥ 80 | –
COC1C(O)C(C)OC(OC2C(Oc3cccc4c(OC(=O)CCCCCCCNC(=O)C(F)(F)F)c5c(=O)oc6ccc(C)c7c(=O)oc(c34)c5c67)OC(C)C3OC(c4ccccc4)OC32)C1O (stereo not drawn) [compound 77] | 186 | – | ≥ 40 | response vs control in vivo at 20 mg/kg (P-388 leukemia cells; BDF1 mice, P-388 i.p.): 135%
C=CC(=O)Oc1c2cccc(O[C@@H]3O[C@H](C)[C@@H]4OC(C)(C)O[C@@H]4[C@H]3O[C@H]3O[C@H](C)[C@H](O)[C@H](OC)[C@H]3O)c2c2oc(=O)c3c(C)ccc4oc(=O)c1c2c43 [compound 197] | 144 | 171 | ≥ 80 | –
COC1C(O)C(C)OC(OC2C(Oc3cccc4c(OC(=O)CCN)c5c(=O)oc6ccc(C)c7c(=O)oc(c34)c5c67)OC(C)C3OC(C)(C)OC32)C1O (stereo not drawn) [compound 42, 6-O-(β-alanyl)-3',4'-O-isopropylidene-chartreusin hydrochloride] | – | 187 | ≥ 100 | –
CCCCCC(=O)Oc1c2cccc(OC3OC(C)C4OC(c5ccccc5)OC4C3OC3OC(C)C(O)C(OC)C3O)c2c2oc(=O)c3c(C)ccc4oc(=O)c1c2c43 (stereo not drawn) [Compound No. 196, 6-O-(n-Hexanoyl)-3',4'-O-Benzylidene-Chartreusin] | 208 | – | ≥ 80 | –
